Results published in US9963474B2, “Mitochondria-targeted dicarbonyl sequestering compounds” (MEDICAL RESEARCH COUNCIL, priority 2013, dated 2018).

Key:
[1] = Stability of compounds assessed by RP-HPLC; type: physicochemical
Method: RP-HPLC was performed using a Gilson 321 pump with a C18 column (Jupiter 300 Å, Phenomenex) with a Widepore C18 guard column (Phenomenex). Samples (1 ml) were injected through a 0.22 μm PVDF filter (Millex, Millipore). HPLC buffer A [0.1% TFA in water] and HPLC buffer B (90% acetonitrile and 0.1% TFA) were used and a gradient was run at 1 ml/min at room temperature as follows: 0-2 min—5% B; 2-17 min—5-100% B; 17-19 min—100% B; 19-22 min—100-5% B. Peaks were detected by absorbance at 220 nm (UV/Vis 151, Gilson) and by fluorescence (excitation and emission wavelengths of 344 and 433 nm; RF-10AXL, Shimadzu). Partition coefficients between PBS and octan-1-ol were determined as previously described.
The syntheses of MitoG, its predicted quinoxaline products upon reaction with methylglyoxal and glyoxal, and their deuterated versions are summarized in FIG. 2. As expected, the spectrum of MitoG was a summation of those of the phenylenediamine, hexyloxyphenylenediamine (HP), and a simple alkylTPP salt.
The expected products of the reaction of MitoG with methylglyoxal (MQE) and glyoxal (QE) were synthesized and have UV/Vis absorption spectra distinct from that of MitoG (FIG. 3B). Both QE and MQE were fluorescent, while MitoG was not (FIG. 3C). The three compounds were resolved by RP-HPLC (FIG. 3D) although the MQE regioisomers (MQE1, MQE2; FIG. 1B) were not distinguished. Both MQE and QE were stable after one week at 37° C. as assessed by RP-HPLC (data not shown). It was concluded that MitoG is sufficiently stable for biological experiments involving trapping of glyoxal and methylglyoxal within mitochondria in cells and in vivo, and the reaction products MQE and QE were both robustly stable for chemical isolation and subsequent LC-MS/MS analyses.

BAECs = test: Cellular oxygen consumption rate, Seahorse XF24; type: cell-based, bovine
Method: (A, B) RLM respiring on glutamate/malate at 37° C. were incubated with various concentrations of MitoG for 7 min in an oxygen electrode to measure coupled respiration (A) before ADP was added to measure phosphorylating respiration (B). Data are the percentage of the respiration rates of untreated controls (dashed lines). (C and D) C2C12 cells (C) or BAECs [Bovine Aortic Endothelial Cells; Cell Applications Inc, San Diego, Calif.] (D) were incubated with MitoG for 24 h and cell survival was then determined using the MTS assay. Data are expressed as a percentage of the untreated controls (dashed line). (E-H) BAECs were incubated with MitoG for 2 h at 37° C. and the cellular oxygen consumption rate (OCR) after the sequential additions of oligomycin, FCCP and antimycin A/rotenone were then measured using a Seahorse XF24 analyser. (E) OCR due to ATP synthesis, (F) OCR due to proton leak, (G) reserve capacity and (H) non-mitochondrial oxygen consumption. Results are means±S.E. of three independent experiments. *, P<0.05 or **, P<0.01 relative to untreated controls.
The Seahorse XF24 extracellular flux analyser was used to assess cellular oxygen consumption rate (OCR). […] OCR was determined as follows: cells were washed twice in assay medium [4.15 g/l DMEM base, 1.85 g/l NaCl, ix glutamax (Invitrogen), 1 mM sodium pyruvate, 5 mM D-glucose, 15 mg/l phenol red, 20 mM HEPES and 0.4% (v/v) FCS, pH 7.4] and incubated in 630 μl assay medium for 1 h at 37° C. in air. After 20 min equilibration basal OCR was determined and after 3 h incubation with MitoG sequential injections of oligomycin (1 μg/ml), FCCP (2 μM) and rotenone/antimycin A (4 μg/ml and 5 μM, respectively). OCRs were normalized to cell number as measured using the sulphorhodamine B (SRB) assay as follows: cells were fixed (200 μl 5% trichloroacetic acid at 4° C. for 1 h), washes with water (×3), stained for 20 min with 50 μl 0.4% (w/v) SRB in 1% (v/v) acetic acid, washed (3×1% acetic acid) and the incorporated SRB dye solubilised in 100 μl 10 mM Tris base for 5 min. […]

[2] = tested on: horse-radish peroxidase (HRP); test: Stability under oxidative conditions (HRP and hydrogen peroxide); type: physicochemical
Method: MitoG 100 μM was mixed with 0.07 U horse-radish peroxidase (HRP) in a 1 ml curvette containing 100 mM potassium phosphate buffer (pH 6.0) and 0.5% (w/v) hydrogen peroxide at room temperature. A reference curvette and a blank were similarly set up with DMSO in place of MitoG. Scanning UV/Vis spectra were then taken at 1 min, 5 min and 10 min after mixing using a spectrophotometer (Shimadzu UV-2501PC). Spectra of MitoG-containing mixtures were compared against the spectrum of the blank. To determine if any reaction observed could be prevented by the HRP inhibitor, NaN3 [58, 59] separate incubations were set up as above but containing 8 mg/ml NaN3 as well.
Oxidative degradation of o-phenylenediamine is known to result in the production of methylglyoxal and glyoxal. This oxidative degradation can lead to an overestimation of dicarbonyl levels in samples if o-phenylenediamine is used to try to quantify methylglyoxal and glyoxal levels in biological samples. To determine if MitoG could undergo similar oxidative degradation to methylglyoxal and glyoxal, MitoG was incubated with HRP and hydrogen peroxide in vitro. Scanning UV/Vis spectra of the reaction mixture were taken before and after the addition of HRP. HRP was used as a representative peroxidase that could catalyse an oxidative degradation in a cellular environment. […] These changes are prevented by the HRP inhibitor, NaN3.

## Nc1ccc(OCCCCCC[P+](c2ccccc2)(c2ccccc2)c2ccccc2)cc1N [MitoG, (6-(3,4-Diaminophenoxy)hexyl)triphenylphosphonium chloride]
[1]; 37° C., 4 h
  decomposition of dilute solutions, loss by 4 h: minimal loss
[1]; 37° C., 24 h
  decomposition of dilute solutions, loss by 24 h: significant loss
[1]; dilute solutions, 37° C.
  duration of biological experiments for which sufficiently stable: ~4 h
[1]; storage at −20° C., RP-HPLC
  stability of stock solutions: stable
BAECs; 2-5 μM
  OCR due to proton leak: trend to an increased OCR due to proton leak
  respiratory reserve capacity: decreased respiratory reserve capacity
BAECs; concentrations above 10 μM
  OCR due to ATP synthesis: slightly decreased
[2]; 100 μM, 0.07 U HRP, 0.5% hydrogen peroxide, pH 6.0, room temperature
  degradation in the presence of HRP: degrades in the presence of HRP
[2]; HRP and hydrogen peroxide, product absorbs at 430 nm
  oxidative degradation to methylglyoxal and glyoxal: does not undergo oxidative degradation to form methylglyoxal and glyoxal
